Measured values as given in patent publication US20090209620A1, “Direct Reversal Of The Suppressive Function Of CD4+Regulatory T Cells Via Toll-Like Receptor 8 Signaling” (priority 2005, published 2009).
Entries after “also recorded” stand apart in the source; their conditions may differ. In the oligonucleotide strings, read from the 5' end, every base follows the letter of its sugar. An asterisk marks phosphorothioate; unmarked linkages are phosphodiester. Other units and linkages are bracketed, terminal groups are in braces. A string of capitals states the bases alone. d = 2'-deoxy (DNA)

Columns and labels:
Format in all cases: cell-based, human
CD4+ Treg cells = test: Pretreatment of Treg cells, then proliferation assay with naive CD4+ T cells (without DCs); conditions: Treg cells pretreated 3 days, washed, then mixed with naive CD4+ T cells
Experimental: C. Pretreatment of Treg cells: 1×10^6 Treg cells were cultured in medium containing CpG-A (3 ug/ml), CpG-B (3 ug/ml), LPS (100 ng/ml), TNF.-α (20 ng/ml), IFN-α (100 ng/ml) or IL-6 (100 ng/ml) for 3 days. After three washes, the pretreated Treg cells were cultured with näive CD4^+ T cells in anti-CD3 mAb-coated plates (without DCs) to determine their suppressive function. After 56 h of culture, [3H]thymidine was added at a final concentration of 1 uCi/well, and cultured for an additional 16 h. The incorporation of [^3H]thymidine was measured with a liquid scintillation counter.
To exclude the possibility that the purified naive CD4^+ T cells might have been contaminated with a small number of monocytes or DCs, cultured CD4^+ Treg cells (100% purity) were pretreated with CpG-A (SEQ ID NO: 1) for 3 days. After three washes, the pretreated CD4^+ Treg cells were mixed with naive CD4^+ T cells in anti-CD3 antibody-coated plates to evaluate their ability to suppress the proliferation of naive CD4^+ T cells.
To determine whether the CpG motif in CpG A confers the ability to reverse the suppressive function of CD4^+ Treg cells, CD4^+ Treg cell lines were pretreated for 3 days with CpG-A (SEQ ID NO: 1), non-CpG-A (CG changed to GC in CpG-A; SEQ ID NO: 3), CpG B (SEQ ID NO: 2) or non-CpG-B (CG changed to GC in CpG-B; SEQ ID NO: 4), and used them in proliferation assays following extensive washes.
Treg cells were pretreated with Poly-G2 (SEQ ID NO: 15) in different concentrations of chloroquine to examine whether acidification is required for the function of guanosine containing oligonucleotides. After extensive washes, the pretreated Treg cells were used for functional assays.

Treg102 cells = test: Reversibility of siRNA-transduced Treg102 cells by Poly-G10 (functional proliferation assay)
From the text: (§1) Several siRNA sequences (19 nucleotides) for each gene were selected with use of computer-assisted programs. Oligonucleotides containing a siRNA sequence, 8 nucleotide spacers, and a polyT terminator sequence were annealed and then cloned into the HapI and XhoI sites of GFP-expressing pLentilox3.7 vector using methods well known in the art (See, e.g., D. A. Rubinson et al., Nat. Genet. 33, 401-6 (2003)). siRNA was under the control of a U6 promoter. The following DNA sequences used to construct siRNAs for IRAK4, MyD88, and TLR7, 8 and 9, were effective in silencing their corresponding genes:
5×10^6 293T cells were pre-seeded onto 100-mm dishes and transfected with 12 μg siRNA lentiviral DNA, 12 μg VSV-G plasmid DNA and 12 μg packaging viral CMV delta 8.9 plasmid, using Lipofectamine 2000. After the addition of fresh culture medium 8 h later, the cells were cultured for an additional 2-3 days. Viral supernatants were harvested, passed through a […] filter and concentrated by ultracentrifugation at 20,000 rpm for 2 h. Virus pellets were resuspended in a small volume of medium, and viral titers were determined by infecting 293T cells with serially diluted doses of virus. For transduction of T cells, T cells (2×106 ) were first activated by OKT3 (2 ug/ml)-coated plates and then were mixed with the concentrated lentiviral supernatant with a multiplicity of infection (MOI) of 10-15 in a total volume of 0.5 ml T cell medium containing 8 ug/ml polybrene (Sigma), and then span at 1000×g for 1 h at room temperature. After 16 h of incubation, 0.5 ml of T cell medium was added to each well. Forty-eight hours later, the T cells were transduced again with the same concentrated viral supernatants. Transduction efficiency was analyzed at 3 or 4 days post-transduction, and the cells were sorted into GFP^+and GFP^−cells with a FACS ARIA sorter. The sorted cells (GFP^+and GFP^−) and untransduced Treg cells were then used to determine their reversibility by Poly-G10 in functional proliferation assays.
The current model of TLR signaling pathways predicts that TLR1, 2, 5, 6, 7, 8, and 9 use MyD88 as their sole receptor-proximal adaptor to transduce signals, TLR3 uses interferon-regulated factor 3 (IRF3) for the production of IFN-α in response to pathogen recognition, while TLR4 is linked to both MyD88-dependent and MyD88 independent pathways. Since MyD88 is important for the signaling activities of most TLRs, it stood to reason that its dependent pathway, in which IRKA4 transduces signals from MyD88 to TRAF6 and other downstream molecules, would likely be involved in TLR signaling initiated by guanosine-containing oligonucleotides. Four or five eGFP-expressing lentiviral constructs containing U6-driven siRNAs were made for each gene and were tested their abilities to specifically knock down their respective target proteins. In FIG. 3A, the efficiency of knock down by siRNA was determined by Western blot analysis. Both IRAK4 and MyD88 were tagged with a FLAG epitope, and detected by anti-FLAG antibody (M2). 293T cells transfected with either FLAG-IRAK4 or FLAG-MyD88 served as positive controls, while nontranseffected 293T cells were negative controls. The amount of β-actin in each lane served as loading controls for the samples. […] Treg102 cells were next transduced with an IRAK4 siRNAl lentivirus. After 3 days in culture, they were sorted by FACS into transduced (GFP^+) and untransduced (GFP^− control) Treg cell populations (FIG. 3B). The purity of GFP^+ and GFP^− cells was confirmed by FACS analysis. […] This notion was further supported by experiments in which Treg102 cells were transduced with MyD88 siRNAs. […] For FIG. 3C, uninfected parental Treg108 cells and Poly-T10 oligonucleotides served as controls. Data are presented as means±SD and represent results from three independent experiments. Similar results were obtained with Treg164 cell lines. […]

Treg164 cells = test: Reversibility of siRNA-transduced Treg164 cells by Poly-G10 (functional proliferation assay)
From the text: as §1
5×10^6 293T cells were pre-seeded onto 100-mm dishes and transfected with 12 μg siRNA lentiviral DNA, 12 μg VSV-G plasmid DNA and 12 μg packaging viral CMV delta 8.9 plasmid, using Lipofectamine 2000. After the addition of fresh culture medium 8 h later, the cells were cultured for an additional 2-3 days. Viral supernatants were harvested, passed through a […] filter and concentrated by ultracentrifugation at 20,000 rpm for 2 h. Virus pellets were resuspended in a small volume of medium, and viral titers were determined by infecting 293T cells with serially diluted doses of virus. […] Transduction efficiency was analyzed at 3 or 4 days post-transduction, and the cells were sorted into GFP^+and GFP^−cells with a FACS ARIA sorter. […]

Substance: G* GGGGACGATCGTCG* G*G*G*G*G [CpG-A]
- reversal of suppressive function of CD4+ Treg cells after pretreatment (CD4+ Treg cells): reverses their suppressive function; also recorded: reversed the suppressive effect; also recorded: reversed the suppressive activities of CD4^+ Treg cells equally well

Substance: Poly-G10: guanosine oligonucleotide with protected phosphorothioate backbone (DNA dG*dG*dG*dG*dG*dG*dG*dG*dG*dG)
- reversibility of suppression by Poly-G10 (Treg102 cells; IRAK4 siRNA-transduced (GFP+) Treg102 cells): could not be reversed
- reversibility of suppression by Poly-G10 (Treg102 cells; MyD88 siRNA-transduced (GFP+) Treg102 cells): completely lost their ability to respond
- reversibility of suppression by Poly-G10 (Treg102 cells; TLR7 siRNA or TLR9 siRNA-transduced (GFP+) Treg cells): retained the same reversible suppressive function
- reversibility of suppression by Poly-G10 (Treg102 cells; TLR8 siRNA-transduced (GFP+) Treg102 cells): could not be reversed
- reversibility of suppression by Poly-G10 (Treg102 cells; Treg cells transduced with control siRNA virus): Neither the suppressive activity nor the reversibility of the suppression was affected
- reversibility of suppression by Poly-G10 (Treg102 cells; untransduced (GFP-) Treg102 cells): reversed as readily as the parental Treg102 cells
- reversibility of suppression by Poly-G10 (Treg164 cells; IRAK4 siRNA-transduced (GFP+) Treg164 cells): lost the capacity to reverse their suppressive function
- reversibility of suppression by Poly-G10 (Treg164 cells; MyD88 siRNA-transduced (GFP+) Treg164 cells): lost the capacity to reverse their suppressive function
